Measured values published in patent US20260262643A1, “HERBICIDAL BENZOXAZINES” (FMC CORPORATION, priority 2022, published 2026).

What was measured:
Assay in all cases: Test A preemergence
Conditions in all cases: 1000 g ai/ha, 0 to 100 scale (0 no effect, 100 complete control), 10 days
[1] = system: barnyardgrass; assay type: in vivo, Echinochloa crusgalli
Procedure, shortened: (§1)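 Seeds in loam–sand blend received a directed preemergence soil spray of compound in non-phytotoxic solvent with surfactant; postemergence plants (2–10 cm, one- to two-leaf stage) were sprayed with the same formulation. After 10 days in greenhouse, injury was rated visually versus untreated controls, 0 (no effect) to 100 (complete control).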

[2] = system: foxtail, giant; assay type: in vivo, Setaria faberi
Procedure, shortened: as §1

[3] = system: kochia; assay type: in vivo, Bassia scoparia
Procedure, shortened: as §1

[4] = system: Pigweed, Redroot; assay type: in vivo, Amaranthus retroflexus
Excerpt: Seeds of plant species selected from barnyardgrass (Echinochloa crusgalli), blackgrass (Alopecurus myosuroides), corn (Zea mays), foxtail, giant (giant foxtail, Setaria faberi), goosegrass (Eleusine indica), kochia (Bassia scoparia), oat, wild (wild oat, Avena fatua), pigweed, palmer (palmer amaranth, palmer pigweed, Amaranthus palmeri), Pigweed, Redroot (redroot pigweed, Amaranthus retroflexus), ragweed (common ragweed, Ambrosia artemisiifolia), ryegrass, Italian (italian ryegrass, Lolium multiflorum), soybean (Glycine max), and wheat (Triticum aestivum) were planted into a blend of loam soil and sand and treated preemergence with a directed soil spray using test chemicals formulated in a non-phytotoxic solvent mixture which included a surfactant. At the same time, plants selected from these crops and weed species and also galium (catchweed bedstraw, Galium aparine) and horseweed (Erigeron canadensis) were planted in pots containing the same blend of loam soil and sand and treated with postemergence applications of test chemicals formulated in the same manner. Plants ranged in height from 2 to 10 cm and were in the one- to two-leaf stage for the postemergence treatment. Treated plants and untreated controls were maintained in a greenhouse for 10 days, after which time all treated plants were compared to untreated controls and visually evaluated for injury. Plant response ratings, summarized in Table A, are based on a 0 to 100 scale where 0 is no effect and 100 is complete control. A dash (-) response means no test result.

[5] = system: ragweed; assay type: in vivo, Ambrosia artemisiifolia
Procedure, shortened: as §1

[6] = system: ryegrass, Italian; assay type: in vivo, Lolium multiflorum
Procedure, shortened: as §1

Row | Structure (SMILES) | Plant response rating, Barnyardgrass [1] | Plant response rating, Foxtail, Giant [2] | Plant response rating, Kochia [3] | Plant response rating, Pigweed, Redroot [4] | Plant response rating, Ragweed [5] | Plant response rating, Ryegrass, Italian [6]
1 | CCC1CN(C(=O)c2ccnc(-n3cncn3)c2)c2cccc(Cl)c2O1 (single isomer, unassigned) [Compound 4] | 0 | 0 | 0 | 0 | 0 | 0
2 | CCCC1CN(C(=O)c2ccnc(-n3cncn3)c2)c2cccc(Cl)c2O1 (stereo not drawn) [Compound 2] | 60 | 100 | 0 | 20 | 0 | 60
3 | CC(C)C1CN(C(=O)c2ccnc(-n3cncn3)c2)c2cccc(Cl)c2O1 (stereo not drawn) [Compound 3] | 0 | 0 | 0 | 0 | 0 | 0
